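Tested at 5 concentrations; 48 h exposure; 96-well plates; endpoints linearly interpolated, else capped at highest concentration. TGI denotes the concentration required for complete inhibition of growth.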
Key:
Experiment in all cases: growth of human tumour cells (NCI), 48 h
[1] = tested on: 786-0 renal
[2] = tested on: NCI-H522 lung
[3] = tested on: OVCAR-4 ovarian
[4] = tested on: HT29 colon
[5] = tested on: OVCAR-8 ovarian
[6] = tested on: EKVX NSCLC
[7] = tested on: MDA-MB-231 breast
[8] = tested on: A549 NSCLC
[9] = tested on: SK-MEL-5 melanoma
[10] = tested on: HCT-15 colon
[11] = tested on: BT-549 breast
[12] = tested on: MDA-MB-435
[13] = tested on: NCI-H226 lung
[14] = tested on: DU-145 prostate
[15] = tested on: NCI-H23 lung
[16] = tested on: SK-MEL-28 melanoma
[17] = tested on: SK-OV-3 ovarian
[18] = tested on: NCI-H460 lung
[19] = tested on: SF-539 CNS
[20] = tested on: COLO 205 colon
[21] = tested on: UACC-257 melanoma
[22] = tested on: LOX IMVI melanoma
[23] = tested on: HCT-116 colon
[24] = tested on: SNB-75 CNS
[25] = tested on: SN12C renal
[26] = tested on: T-47D breast
[27] = tested on: CCRF-CEM leukemia
[28] = tested on: U251 CNS
[29] = tested on: UACC-62 melanoma
[30] = tested on: SW-620 colon
[31] = tested on: SF-268 CNS
[32] = tested on: PC-3 prostate
[33] = tested on: SK-MEL-2 melanoma
[34] = tested on: ACHN renal
[35] = tested on: SF-295 CNS
[36] = tested on: NCI/ADR-RES ovarian
[37] = tested on: CAKI-1 renal
[38] = tested on: HS 578T breast
[39] = tested on: MOLT-4 leukemia
[40] = tested on: K-562 leukemia
[41] = tested on: M14 melanoma
[42] = tested on: TK-10 renal
[43] = tested on: UO-31 renal
[44] = tested on: MCF7 breast
[45] = tested on: HOP-62 NSCLC
[46] = tested on: HL-60(TB) leukemia
[47] = tested on: SNB-19 CNS
[48] = tested on: MALME-3M melanoma
[49] = tested on: RXF 393 renal
[50] = tested on: OVCAR-3 ovarian
[51] = tested on: KM12 colon
[52] = tested on: OVCAR-5 ovarian
[53] = tested on: HOP-92 NSCLC
[54] = tested on: IGROV1 ovarian

Which results are given for COc1ccc(CNc2nc(NC3CCCCC3)nc(NC3CCCCC3)n2)cc1?
TGI [1]: 70.3 µM; TGI [2]: 28.8 µM; TGI [3]: > 100 µM; TGI [4]: > 100 µM; TGI [5]: > 100 µM; TGI [6]: > 100 µM; TGI [7]: 20.1 µM; TGI [8]: > 100 µM; TGI [9]: 14.4 µM; TGI [10]: 5.5 µM; TGI [11]: > 100 µM; TGI [12]: > 100 µM; TGI [13]: 15.5 µM; TGI [14]: > 100 µM; TGI [15]: 12.6 µM; TGI [16]: > 100 µM; TGI [17]: > 100 µM; TGI [18]: 15.6 µM; TGI [19]: > 100 µM; TGI [20]: 20.9 µM; TGI [21]: > 100 µM; TGI [22]: 4.44 µM; TGI [23]: 16 µM; TGI [24]: > 100 µM; TGI [25]: > 100 µM; TGI [26]: 44 µM; TGI [27]: > 100 µM; TGI [28]: 84.7 µM; TGI [29]: 50.9 µM; TGI [30]: 50 µM; TGI [31]: > 100 µM; TGI [32]: > 100 µM; TGI [33]: 80.3 µM; TGI [34]: > 100 µM; TGI [35]: > 100 µM; TGI [36]: > 100 µM; TGI [37]: > 100 µM; TGI [38]: > 100 µM; TGI [39]: > 100 µM; TGI [40]: > 100 µM; TGI [41]: > 100 µM; TGI [42]: > 100 µM; TGI [43]: 67.2 µM; TGI [44]: 18.8 µM; TGI [45]: > 100 µM; TGI [46]: > 100 µM; TGI [47]: > 100 µM; TGI [48]: 64.2 µM; TGI [49]: 7.94 µM; TGI [50]: > 100 µM; TGI [51]: 3.84 µM; TGI [52]: > 100 µM; TGI [53]: > 100 µM; TGI [54]: 61.6 µM

— PubChem BioAssay (NCI)
